# Measurements: US9889093B2, “Application of andrographolide in the preparation of a pharmaceutical for treatment of inflammatory bowel disease, andrographolide enteric targeting micropellet, and method for preparation thereof” (TASLY PHARMACEUTICAL GROUP CO., LTD., priority 2013, dated 2018)
# Marks after values point to notes of the source that are not given here.
# Tests used:
# [1] = system: TNBS-induced colitis mice; assay: TNBS-induced UC (colitis) mouse model; type: in vivo; settings: for Body weight / Colon weight: oral twice daily; for Body weight / Colon weight / Colon scores / Colon indices / Decrease rate of colon specific weight: 7 days; for Colon scores: histopathological score 0-4; for Colon indices: percentage of colon weight to body weight; for Decrease rate of colon specific weight: vs model control group
# Method: 5% (w/v) TNBS solution was diluted with double-distilled water and mixed with 50% (v/v) ethanol in equal volume to have 1.5% (w/v) TNBS solution. In the model control group, the mice were anesthetized with 1 wt % pentobarbital solution at a dose of 0.05 ml/10 g body weight. After being anesthetized, the mice were administrated with 1.5% (w/v) TNBS solution at a dose of 0.1 ml/mouse by gently inserting stomach perfusion device to about 3 cm depth via anus and arriving at the colon, and the IBD was induced. In the saline group, the saline was gently injected into the colon at a dose of 0.1 ml/mouse. In the normal control group, 50% (v/v) ethanol was gently injected into the colon at a dose of 0.1 ml mouse.
# After one week adaptive feeding, all animals were randomly divided into 5 groups according to body weight, 10 mice in one group: the normal control group, the model control group, the andrographolide low-dose group (20 mg/kg/d), the andrographolide high-dose group (40 mg/kg/d) and the positive control group (Sulfasalazine group, 300 mg/kg/d). Two hours after making model, the animals in each treating groups were orally administrated twice daily with the andrographolide and once daily in the positive control group. After successive administration for 7 days, the abdomen was opened 24 hours after the last administration to observe adhesion degree between the colon and other organs. The colon was separated and weighed.
# 1. Body weight: after making model, body weight was measured every day to observe the change in the animals.
# 2. Evaluation of inflammation: the abdomen was opened 24 hours after the last administration to observe adhesion degree between the colon and other organs. Every segment of the colon was taken out and weighed to calculate the percentage of the colon weight to body weight, as the colon index. The formula was presented as follows: Decrease rate of colon specific weight=(colon index of the model control group−colon index of the treatment group)/colon index of the model control group×100%
# 3. Histopathological examination: a part of the colon was taken to prepare the pathological section, and the standard for score was as follows: • 0 score, no inflammatory symptoms; • 1 score, low-grade inflammation with no structure change; • 2 score, low-grade leukocyte infiltration; • 3 score, high-grade leukocyte infiltration, high vascular density, crypt extension, thickened colon wall and superficial ulcer • 4 score, high-grade leukocyte infiltrating exceeding to mucous layer, crypt extension, decrease of goblet cell, high vascular density, thickened colon wall and extensive ulcer
# SPSS11.5 software was used for analysis and the data were expressed as x±S. Variance analysis was used for comparison of significant difference among groups.
# [2] = system: DSS-induced UC mice; assay: DSS-induced UC mouse model, disease active index; type: in vivo
# Text: 4 Dose Designing and Grouping • 4.1 Grouping: quarantine-qualified 84 mice were randomly divided into 6 groups: the model control group, the positive control group, the tested drug low-dose intragastric group, the tested drug high-dose intragastric group, the tested drug low-dose intracolonical group and the tested drug high-dose intracolonical group, 14 mice per group. All animals drank 5% DSS solution daily for consecutive 14 days to establish UC model. Animals were administrated with the drug for treatment on the 2nd day after being given 5% DSS drinking water. • 4.2 Dose: in this study, dose of administration of the mice in all groups was designed on the basis of client's requirements, and the same doses were adopted in both intragastric and intracolonical groups. Animals were not treated in the model control group, the positive control group (mesalazine enteric tablet, 227.5 mg·kg^−1·d^−1), the andrographolide low-dose intragastric group (60 mg·kg^1·d^−1), the andrographolide high-dose intragastric group (180 mg·kg^−1·d^−1), the andrographolide low-dose intracolonical group (60 mg·kg^−1·d^−1) and the andrographolide high-dose intracolonical group (180 mg·kg^−1·d^−1).
# 5 Method • 5.1 Method of making UC model: all animals drank 5% DSS solution daily for consecutive 14 days. • 5.2 Method of administration: on the 2nd day after modeling, the mice were treated intragastrically or intracolonically with the drug at 1 mL/100 g once a day for consecutive 14 days. • 5.3 Method for sampling in experiment: 2 hours after the last administration, the mice were killed by cervical vertebra dislocation and abdomen was opened to separate the colon. Along mesenteric side, the intestinal lumen was cut and rinsed with 4° C. normal saline and spread on a plastic plate. • 5.4 Method for evaluating disease active index (DAI): the disease active index was assessed at the 7th and 14th day after administration. The method was presented together with the following three parameters: the body weight loss percentages (unchanged BW: 0 score, 1˜5: 1 score, 5˜10: 2 score, 10˜15: 3 score, more than 15: 4 score), stool viscosity (normal stool: 0 score, loosen stool: 2 score, diarrhea: 4 score) and blood stool (normal stool: 0 score, occult blood stool: 2 score and positive blood stool: 4 score). Total score of three parameters was divided by 3 to give the DAI, namely DAI=(BW index score+stool character score+stool blood score)/3.
# 6 Observation Indices • 6.1 Observation: the general clinical symptoms in the mice were observed daily from the beginning to the end of the experiment, and the stool, mental status and death status were recorded. • 6.2 Body weight: BW was recorded weekly from the beginning to the end of the experiment. • 6.3 Calculation of DAI: DAI was calculated on the 7th and 14th day after administration so as to assess disease activity. • 6.4 The colon mucosal tissue 8˜10 cm away from the anus was sampled, embedded with paraffin and stained with routine HE. Colon mucosal injury was observed by a microscope and histological injury was scored based on the following indices: ulcer inflammatory granuloma, fibrosis and pathological degree.
# Data were expressed as mean+standard deviation (x±S). All numerical variables were analyzed with SPSS13.0 software by one-way ANOVA. T-test analysis was used for inter-group comparison.
# [3] = Solubility of the drug in DMSO and fish farm water; type: physicochemical
# [4] = andrographolide high-dose 40 mg/kg/d
# [5] = andrographolide low-dose 20 mg/kg/d
# [6] = andrographolide high-dose 180 mg/kg, intracolonical
# [7] = andrographolide high-dose 180 mg/kg, intragastric
# [8] = andrographolide low-dose 60 mg/kg, intracolonical
# [9] = andrographolide low-dose 60 mg/kg, intragastric
compound,measurement,setting,value
C=C1CC[C@@H]2[C@](C)(CO)[C@H](O)CC[C@@]2(C)[C@@H]1C/C=C1/C(=O)OC[C@H]1O [Andrographolide],Body weight increase compared with the model control group,"[1]; FIG. 1, treated groups",increased faster than that in the model control group
same,Body weight,[1]; [4],20.95 ± 1.09 g
same,Colon weight,[1]; [4],0.29 ± 0.09 g
same,Body weight,[1]; [5],19.95 ± 2.05 g
same,Colon weight,[1]; [5],0.43 ± 0.12 g
same,Colon scores,[1]; [4],1.8**
same,Colon scores,[1]; [5],3.2
same,Colon indices,[1]; [4],1.38 ± 0.46
same,Colon indices,[1]; [5],2.24 ± 0.90
same,Intestinal elasticity compared with the model control group,"[1]; treated groups, after 7 days",higher than that in the model control group
same,Decrease rate of colon specific weight,[1]; [4],58.96%
same,Decrease rate of colon specific weight,[1]; [5],33.20%
same,DAI on the 7th day,[2]; [6],1.36 ± 0.64
same,DAI on the 14th day,[2]; [6],1.35 ± 0.18
same,DAI on the 7th day,[2]; [7],1.43 ± 0.38
same,DAI on the 14th day,[2]; [7],1.64 ± 0.83
same,DAI on the 7th day,[2]; [8],1.67 ± 0.65
same,DAI on the 14th day,[2]; [8],1.77 ± 0.95
same,DAI on the 7th day,[2]; [9],1.63 ± 0.99
same,DAI on the 14th day,[2]; [9],2.01 ± 0.80
same,solubility,"[3]; DMSO, organic solvent or mixture",~250 mg/mL
same,Concentration at which the drug began to precipitate,[3]; fish farm water,≥ 500 µg/mL
